Measured values: patent US7491733B2, “Bicyclic guanidine derivatives and therapeutic uses thereof” (Merck Patent GmbH, priority 2001, dated 2009)
Structures can show the parent of a compound that is named as a salt. Where two headings read alike, the source gives them in different places.

Key:
Nostz Rats = assay: Oral antidiabetic activity in Nostz rats (non-insulin-dependent diabetes induced by neonatal steptozotocin); change in glycaemia; assay type: in vivo; conditions: Rattus norvegicus, blood sample two hours after the final administration, diabetic rats; for change in vivo at 20 mg/kg: 20 mg/kg/day; for change in vivo at 200 mg/kg: 200 mg/kg/day
Protocol: Study of the Antidiabetic Activity in Nostz Rats
The oral antidiabetic activity of the compounds of the formula (I) was determined on an experimental model of non-insulin-dependent diabetes, induced in the rats with steptozotocin.
The model of non-insulin-dependent diabetes is obtained in the rats by means of a neonatal injection (on the day of birth) of steptozotocin.
The diabetic rats used are eight weeks old. The animals are housed, from the day of birth to the day of the experiment, in an animal house at a regulated temperature of 21 to 22° C. and subjected to a fixed cycle of light (from 7 a.m. to 7 p.m.) and darkness (from 7 p.m. to 7 a.m.). Their food consisted of a maintenance diet, and water and food were given “ad libitum”, with the exception of fasting two hours before the tests, during which period the food is removed (post-absorptive state).
The rats are treated orally for one (D1) or four (D4) days with the test product. Two hours after the final administration of the product and 30 minutes after the animals have been anaesthetised with pentobarbital sodium (Nembutal®), a 300 μl blood sample is taken from the end of the tail.
By way of example, results obtained are collated in Table 2.

[1] = 24 h, one day of treatment (D1), read-out: percentage change in the glycaemia on D1 relative to D0
[2] = 96 h, four days of treatment (D4), read-out: percentage change in the glycaemia on D4 relative to D0

Row | SMILES | change in vivo at 20 mg/kg (Nostz Rats; [1]) [%] | change in vivo at 200 mg/kg (Nostz Rats; [1]) [%] | change in vivo at 20 mg/kg (Nostz Rats; [2]) [%] | change in vivo at 200 mg/kg (Nostz Rats; [2]) [%] | melting point [°C]
1 | N=C(N)NCc1cc2ccccc2[nH]1 [Compound 7] | -5 | -19 | -9 | -28 | 
2 | N=C(N)NCC1Cc2ccccc2C1 (as salt: sulfate) [Compound 3, 2-(aminoiminomethylamino)methylindane sulfate] |  |  |  |  | 231 to 233
3 | N=C(N)NCC1Cc2ccccc2S1 (centres unmarked) [Compound 10] | -3 | -21 | -5 | -25 | 187 to 189
4 | N=C(N)NCc1cc2ccccc2o1 (as salt: sulfate) [Compound 15] |  |  |  |  | 244 to 247
5 | N=C(N)NCC1Cc2ccccc2O1 (centres unmarked) [Compound 9] |  |  |  |  | 139 to 141
6 | COc1ccc2[nH]c(CNC(=N)N)cc2c1 (as salt: sulfate) [Compound 13] |  |  |  |  | 213 to 215
7 | N=C(N)NCc1nc2ccccc2s1 (as salt: hydrochloride) [Compound 5] |  |  |  |  | 196 to 198
8 | N=C(N)NCC1Cc2ccccc2C1 [Compound 3, 2-(aminoiminomethylamino)methylindane sulfate] | 2 | -14 | -10 | -29 | 
9 | N=C(N)NCc1nc2ccccc2[nH]1 (as salt: hydrochloride) [Compound 2, 2-(aminoiminomethylamino)methylbenzimidazole hydrochloride] |  |  |  |  | 171 to 173
10 | COc1ccc2c(c1)cc(CNC(=N)N)n2C [Compound 12] |  | -22 |  | -26 | 
11 | N=C(N)NCc1nc2ccccc2[nH]1 [Compound 2, 2-(aminoiminomethylamino)methylbenzimidazole hydrochloride] | -17 | -10 | -13 | -25 | 
12 | CN(Cc1nc2ccccc2[nH]1)C(=N)N (as salt: hydrochloride) [Compound 6] |  |  |  |  | 253 to 255
13 | COc1ccc2[nH]c(CNC(=N)N)cc2c1 [Compound 13] |  | -16 |  | -26 | 
14 | COc1ccc2c(c1)cc(CNC(=N)N)n2C (as salt: sulfate) [Compound 12] |  |  |  |  | 233 to 235
15 | N=C(N)NCC1Cc2ccccc2N1 (centres unmarked) [Compound 8] | -7 | -10 | -12 | -9 | 
16 | Cn1c(CNC(=N)N)cc2cc(F)ccc21 (as salt: hydrochloride) [Compound 14] |  |  |  |  | 181 to 183
17 | CN(CC1=Cc2ccccc2C1)C(=N)N (as salt: hydrochloride) [Compound 16] |  |  |  |  | 209 to 211
18 | N=C(N)NCC1Cc2cc(F)c(F)cc2C1 (as salt: sulfate) [Compound 17] |  |  |  |  | > 250
19 | N=C(N)NCc1cc2ccccc2o1 [Compound 15] | -23 | -29 | -28 | -31 | 
20 | N=C(N)NCC1Cc2ccccc2N1 (centres unmarked) (as salt: hemisulfate) [Compound 8] |  |  |  |  | 189 to 191
21 | N=C(N)NCc1nc2ccccc2s1 [Compound 5] | -18 | -30 | -3 | -26 | 
22 | CN(Cc1nc2ccccc2s1)C(=N)N [Compound 1, 2-(aminoiminomethyl(methylamino)methyl)-benzothiazole hydrochloride] | 5 | -9 | -4 | -23 | 
23 | COc1cc2c(cc1OC)CC(CNC(=N)N)C2 (as salt: sulfate) [Compound 11] |  |  |  |  | 191 to 193
24 | CN(Cc1nc2ccccc2[nH]1)C(=N)N [Compound 6] | 3 | -6 | 0 | -16 | 
25 | CN(Cc1nc2ccccc2s1)C(=N)N (as salt: hydrochloride) [Compound 1, 2-(aminoiminomethyl(methylamino)methyl)-benzothiazole hydrochloride] |  |  |  |  | 203 to 205
26 | COc1cc2c(cc1OC)CC(CNC(=N)N)C2 [Compound 11] | -1 | -8 | -8 | -14 | 
